Measured values reported in patent US20250325676A1, “CAMPTOTHECIN PRODRUG AND PHARMACEUTICAL COMPOSITION THEREOF” (TIANJIN HEMAY ONCOLOGY PHARMACEUTICAL CO., LTD, priority 2022, published 2025).
Where two headings read alike, the source gives them in different places.

How the values were obtained:
[1] = test system: human colon cancer SW620; conditions: 30 mg/kg i.v. qw × 2; SW620 model
[2] = test system: NCI-H460; assay: In vitro inhibition of human tumor cells, NCI-H460, MTT method; type: cell-based
Procedure: (§1) The cells were allowed to adhere overnight.
(§2) Adherent cells: Culture medium was aspirated and 100 μl/wells of basal culture (generally refers to medium without fetal bovine serum (FBS) and other additives) containing 0.5 mg/ml MTT were added. The cells were cultured for 3 hours. MTT-containing basal medium was aspirated and 100 μl/wells of DMSO were added to dissolve formazan.
(§3) Unstably adherent cells: Unstably adherent cells were directly added to the MTT solution to achieve the concentration of 0.5 mg/ml and cultured for 3 hours. The ternary solution in an equal volume to the system was added to the system to dissolve the formazan.
(§4) The DMSO concentration was 0.1%.

[3] = test system: MDA-MB-468; assay: In vitro inhibition of human tumor cells, MDA-MB-468, SRB method
[4] = test system: BxPC-3; assay: In vitro inhibition of human tumor cells, BxPC-3, MTT method; type: cell-based
Procedure: as §1, §2, §3, §4

[5] = test system: HCT116; assay: In vitro inhibition of human tumor cells, HCT116, MTT method; type: cell-based
Procedure: as §1, §2, §3, §4

[6] = test system: NCI-N87; assay: In vitro inhibition of human tumor cells, NCI-N87, MTT method; type: cell-based
[7] = test system: LoVo; assay: In vitro inhibition of human tumor cells, LoVo, SRB method; type: cell-based
From the text: as §1
(§5) Trichloroacetic acid was removed. […] Excess SRB was removed.
as §4

[8] = test system: SW620; assay: In vitro inhibition of human tumor cells, SW620, SRB method; type: cell-based
From the text: as §1, §5, §4

[9] = test system: human pancreatic cancer BxPC-3; conditions: 30 mg/kg i.v. qw × 2; BxPC-3 large tumors after irinotecan
[10] = test system: human pancreatic cancer BxPC-3; assay: Growth of human pancreatic cancer BxPC-3 in allogeneic transplantation model; type: in vivo, nude mice; conditions: BxPC-3 model
[11] = test system: human colon cancer HCT116; assay: Growth of human colon cancer HCT116 in allogeneic transplantation model; type: in vivo, nude mice
[12] = test system: human colon cancer HCT116; conditions: 30 mg/kg i.v. qw × 2; HCT116 large tumor after irinotecan
From the text: When the tumor volume was more than 600 mm^3 and stable growth was maintained, the experimental animals were randomly divided by the remainder method and administered according to the size of the tumor volume. […] The subcutaneous tumors were stripped and weighed.
T was the subject and C is the model control.
Tumor volume growth was observed on a regular basis after completion of dosing.

[13] = test system: human small cell lung cancer NCI-H446; conditions: 20 mg/kg i.v. qw × 2; NCI-H446 model
[14] = No βGU (direct effects of compound on cells)

(2S,3S,4S,5R,6S)-6-(3-((1-(8-((4′-((E)-(8-amino-1-hydroxy-5,7-disulfonicnaphthalen-2-yl)diazenyl)-3,3′-dimethyl-[1,1′-biphenyl]-4-yl)amino)-8-oxooctyl)-1H-1,2,3-triazol-4-yl)methoxy)-4-((((S)-4,11-diethyl-4-hydroxy-3,14-dioxy-3,4,12,14-tetrahydro-1H-pyrano[3′,4′:6,7]indolizino[1,2-b]quinolin-9-yl)oxy)methyl)phenoxy)-3,4,5-trihydroxytetrahydro-2H-pyran-2-carboxylate trisodium [Example 40]
T/C (%) [1]: 2.9%
Tumor inhibition rate (%) [1]: 97.2%
IC50 ([2]; Adding βGU): 15 nM
IC50 ([2]; No βGU): 943 nM
IC50 ([3]; Adding βGU): 6.9 nM
IC50 ([3]; No βGU): 217 nM
IC50 ([4]; Adding βGU): 41 nM
IC50 ([4]; No βGU): 658 nM
IC50 ([5]; Adding βGU (β-glucuronidase)): 6.1 nM
IC50 [5, 14]: 218 nM
IC50 ([6]; Adding βGU): 30 nM
IC50 ([6]; No βGU): 1570 nM
IC50 ([7]; Adding βGU): 23 nM
IC50 ([7]; No βGU): 302 nM
IC50 ([8]; Adding βGU): 6.9 nM
IC50 ([8]; No βGU): 244 nM

(2S,3S,4S,5R,6S)-6-(3-((1-(6-((4′-((E)-(8-amino-1-hydroxy-5,7-disulfonicnaphthalen-2-yl)diazenyl)-3,3′-dimethyl-[1,1′-biphenyl]-4-yl)amino)-6-oxohexyl)-1H-1,2,3-triazol-4-yl)methoxy)-4-(((S)-4-ethyl-4-hydroxy-3,14-dioxy-3,4,12,14-tetrahydro-1H-pyrano[3′,4′:6,7]indolazino[1,2-b]quinolin-9-yl)oxy)methyl)phenoxy)-3,4,5-trihydroxytetrahydro-2H-pyran-2-carboxylate trisodium [Example 24]
IC50 ([2]; Adding βGU): 39 nM
IC50 ([2]; No βGU): 1720 nM
IC50 ([3]; Adding βGU): 11 nM
IC50 ([3]; No βGU): 171 nM
IC50 ([4]; Adding βGU): 19 nM
IC50 ([4]; No βGU): 1270 nM
Relative volume RTV (X ± S.D.) [9]: 1.04 ± 0.07
T/C (%) [9]: 25.5%
Tumor inhibition rate (%) [9]: 75.3%
Tumor weight (g, X ± S.D.) [9]: 0.742 ± 0.267 g
IC50 ([5]; Adding βGU (β-glucuronidase)): 14 nM
IC50 [5, 14]: 339 nM
IC50 ([6]; Adding βGU): 61 nM
inhibition rate at 2 μM ([6]; No βGU): 2 μM about 34.4%
IC50 ([7]; Adding βGU): 18 nM
IC50 ([7]; No βGU): 764 nM
IC50 ([8]; Adding βGU): 6.5 nM
IC50 ([8]; No βGU): 915 nM
Relative volume RTV (X ± S.D.) ([10]; 25 mg/kg i.v. qw × 2): 0.46 ± 0.12
T/C (%) ([10]; 25 mg/kg i.v. qw × 2): 9.6%
Tumor inhibition rate (%) ([10]; 25 mg/kg i.v. qw × 2): 92.0%
Tumor weight (g, X ± S.D.) ([10]; 25 mg/kg i.v. qw × 2): 0.134 ± 0.080 g

(2S,3S,4S,5R,6S)-6-(3-((1-(8-((4′-((E)-(8-amino-1-hydroxy-5,7-disulfonicnaphthalen-2-yl)diazenyl)-[1,1′-biphenyl]-4-yl)amino)-8-oxooctyl)-1H-1,2,3-triazol-4-yl)methoxy)-4-((((S)-4,11-diethyl-4-hydroxy-3,14-dioxo-3,4,12,14-tetrahydro-1H-pyrano[3′,4′: 6,7]indolazino[1,2-b]quinolin-9-yl)oxy)methyl)phenoxy)-3,4,5-trihydroxytetrahydro-2H-pyran-2-carboxylate trisodium [Example 47]
T/C (%) [1]: 3.5%
Tumor inhibition rate (%) [1]: 96.2%
IC50 ([2]; Adding βGU): 17 nM
IC50 ([2]; No βGU): 350 nM
IC50 ([3]; Adding βGU): 14 nM
IC50 ([3]; No βGU): 172 nM
IC50 ([4]; Adding βGU): 27 nM
IC50 ([4]; No βGU): 698 nM
IC50 ([5]; Adding βGU (β-glucuronidase)): 12 nM
IC50 [5, 14]: 183 nM
IC50 ([6]; Adding βGU): 62 nM
IC50 ([6]; No βGU): 1480 nM
IC50 ([7]; Adding βGU): 22 nM
IC50 ([7]; No βGU): 310 nM
IC50 ([8]; Adding βGU): 6.7 nM
IC50 ([8]; No βGU): 329 nM

CCc1c2c(nc3ccc(OC(=O)N4CCC(N5CCCCC5)CC4)cc13)-c1cc3c(c(=O)n1C2)COC(=O)[C@]3(O)CC [irinotecan, reference compound]
Tumor inhibition rate (%) ([11]; 100 mg/kg i.p. qw × 2): 71.6%
Final body weight change (%) ([11]; 100 mg/kg i.p. qw × 2, nude mouse): −10.5%
Final body weight change (%) ([10]; 100 mg/kg i.p. qw × 2, d 17 data): 6.4%

(2S,3S,4S,5R,6S)-6-(3-((1-(6-((4′-((E)-(8-amino-1-hydroxy-5,7-disulfonicnaphthalen-2-yl)diazenyl)-3,3′-dimethoxy-[1,1′-biphenyl]-4-yl)amino)-6-oxohexyl)-1H-1,2,3-triazol-4-yl)methoxy)-4-(((S)-4,11-diethyl-4-hydroxy-3,14-dioxy-3,4,12,14-tetrahydro-1H-pyrano[3′,4′:6,7]indolizino[1,7]quinolin-9-yl)oxy)methyl)phenoxy)-3,4,5-trihydroxytetrahydro-2H-pyran-2-carboxylate trisodium [Example 69]
T/C (%) [1]: 1.1%
Tumor inhibition rate (%) [1]: 99.1%
IC50 ([2]; Adding βGU): 13 nM
IC50 ([2]; No βGU): 566 nM
IC50 ([3]; Adding βGU): 10 nM
IC50 ([3]; No βGU): 88 nM
IC50 ([4]; Adding βGU): 16 nM
IC50 ([4]; No βGU): 720 nM
IC50 ([5]; Adding βGU (β-glucuronidase)): 8.2 nM
IC50 [5, 14]: 181 nM
IC50 ([6]; Adding βGU): 32 nM
IC50 ([6]; No βGU): 350 nM
IC50 ([7]; Adding βGU): 11 nM
IC50 ([7]; No βGU): 592 nM
IC50 ([8]; Adding βGU): 7.7 nM
IC50 ([8]; No βGU): 361 nM

(2S,3S,4S,5R,6S)-6-(3-((1-(3-(2-((4′-(E)-(8-amino-1-hydroxy-5,7-disulfonicnaphthalen-2-yl)diazenyl)-3,3′-dimethyl-[1,1′-biphenyl]-4-yl)amino)-2-oxoethoxy)propyl)-1H-1,2,3-triazol-4-yl)methoxy)-4-((((S)-4,11-diethyl-4-hydroxy-3,14-dioxy-3,4,12,14-tetrahydro-1H-pyrano[3′,4′:6,7]indolazino[1,7]quinolin-9-yl)oxy)methyl)phenoxy)-3,4, 5-trihydroxytetrahydro-2H-pyran-2-carboxylate trisodium [Example 96]
IC50 ([3]; Adding βGU): 7.5 nM
IC50 ([3]; No βGU): 213 nM
IC50 ([6]; Adding βGU): 30 nM
IC50 ([6]; No βGU): 964 nM
Relative volume RTV (X ± S.D.) [12]: 0.78 ± 0.03
T/C (%) [12]: 21.0%
Tumor inhibition rate (%) [12]: 84.4%
Tumor weight (g, X ± S.D.) [12]: 0.425 ± 0.091 g

(2S,3S,4S,5R,6S)-6-(3-((1-(2-(2-(2-((4′-((E)-(8-amino-1-hydroxy-5,7-disulfonicnaphthalen-2-yl)diazenyl)-3,3′-dimethyl-[1,1′-biphenyl]-4-yl)amino)-2-oxoethoxy)ethoxy)ethyl)-1H-1,2,3-triazol-4-yl)methoxy)-4-(((S)-4,11-diethyl-4-hydroxy-3,14-dioxo-3,4,12,14-tetrahydro-1H-pyrano[3′,4′:6,7]indolazino[1,2-b]quinolin-9-yl)oxy)methyl)phe noxy)-3,4,5-trihydroxytetrahydro-2H-pyran-2-carboxylate trisodium [Example 54]
Relative volume RTV (X ± S.D.) [13]: 0.61 ± 0.48
T/C (%) [13]: 8.9%
Tumor inhibition rate (%) [13]: 90.5%
Tumor weight (g, X ± S.D.) [13]: 0.093 ± 0.080 g
IC50 ([2]; Adding βGU): 11 nM
IC50 ([2]; No βGU): 360 nM
IC50 ([3]; Adding βGU): 6.8 nM
IC50 ([3]; No βGU): 217 nM
IC50 ([4]; Adding βGU): 8.8 nM
IC50 ([4]; No βGU): 638 nM
IC50 ([5]; Adding βGU (β-glucuronidase)): 13 nM
IC50 [5, 14]: 259 nM
T/C (%) ([11]; 10 mg/kg i.v. qw × 2): 27.0%
Tumor inhibition rate (%) ([11]; 10 mg/kg i.v. qw × 2): 74.4%
IC50 ([6]; Adding βGU): 38 nM
inhibition rate at 2 μM ([6]; No βGU): 2 μM about 46.1%
IC50 ([7]; Adding βGU): 9.3 nM
IC50 ([7]; No βGU): 275 nM
IC50 ([8]; Adding βGU): 15 nM
IC50 ([8]; No βGU): 549 nM
